According to patent publication US9617602B2, “Methods and compositions for determining resistance to androgen receptor therapy” (Aragon Pharmaceuticals, Inc., priority 2012, dated 2017):

Columns and labels:
Type in all cases: cell-based, human
LNCaP/AR(cs) cells = assay: Endogenous gene transcriptional assay (real-time PCR of androgen responsive genes);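 on ORM1 expression, agonist transcription: LNCaP/AR(cs) cells without added R1881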;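 on PLD1 expression, agonist transcription: LNCaP/AR(cs) cells without added R1881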;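 on PSA expression, agonist transcription: LNCaP/AR(cs) cells without added R1881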;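 on SLUG expression, agonist transcription: LNCaP/AR(cs) cells without added R1881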;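 on TMPRSS2 expression, agonist transcription: LNCaP/AR(cs) cells without added R1881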
[1] = test system: Class 1 resistant cell lines; assay: Transcriptional reporter assay (probasin-luciferase)
Description: With the exception of the LNCaP/AR(cs)-Luc cells that contain an integrated androgen responsive reporter, cells were transiently transfected using Lipofectin® (Life Technologies) according to the manufacturer's protocol. […] Following transfection, the cells were incubated for 4 hours.
Following 48 hour incubation the medium was removed and the cells were lysed in 40 μL of lysis buffer (25 mM Tris Phosphate, 2 mM CDTA, 10% Glycerol, 0.5% Triton X-100, 2 mM DTT).

[2] = test system: Class 2 MDV3100- and ARN-509-resistant cell lines; assay: Proliferation assay (CellTiter-Glo), agonist and antagonist mode; details: antagonist mode
LNCaP ARN-509r1 cells = assay: Endogenous gene transcriptional assay (real-time PCR of androgen responsive genes); details: 1 nM R1881 or 30 μM compound, vehicle=1.00
Description: Total RNA was isolated using the Aurum™ total RNA isolation kit (BIO-RAD, Hercules, Calif.). RNA (1 μg) was reverse transcribed using the iScript cDNA synthesis kit (BIO-RAD, Hercules, Calif.) to produce cDNA. Real-time PCR was performed using the Applied Biosystems 7900HT instrument and SYBR Green PCR Master Mix (Applied Biosystems, Foster City, Calif.). PCR reactions were performed in 6 μL according to the manufacturer's protocol and a thermocycle protocol of 95° C. for 10 minutes followed by 40 cycles of 95° C. for 15 seconds and 58° C. for 1 minute. Androgen responsive gene (PSA, SLUG, TMPRSS2, STEAP4, FKBP5, ORM1, NOV, FASN, NKX3.1, AMIGO2, BDNF, CAMK2N1, HPGD, NCAPD3, PLD1) expression was normalized to GAPDH expression and expressed relative to vehicle treatment of the parental cell line.
Gene expression was normalized to GAPDH as described above.

[3] = Table 4A, 1 nM R1881 or 30 μM compound, vehicle=1.00

## CNC(=O)c1ccc(N2C(=S)N(c3ccc(C#N)c(C(F)(F)F)c3)C(=O)C2(C)C)cc1F [Enzalutamide, enzalutamide]
LNCaP/AR(cs) cells; +1 nM R1881, 0.3 μM
  AMIGO2 expression, antagonist transcription: 0.49
  BDNF expression, antagonist transcription: 0.61
  CAM2KN1 expression, antagonist transcription: 0.04
  FASN expression, antagonist transcription: 1.30
  FKBP5 expression, antagonist transcription: 23.51
  HPGD expression, antagonist transcription: 99.16
  NCAPD3 expression, antagonist transcription: 23.74
  NKX3.1 expression, antagonist transcription: 7.70
  NOV expression, antagonist transcription: 0.11
  PLD1 expression, antagonist transcription: 0.02
  PSA expression, antagonist transcription: 22.76
  SLUG expression, antagonist transcription: 50.08
  STEAP4 expression, antagonist transcription: 585.81
  TMPRSS2 expression, antagonist transcription: 19.88
LNCaP/AR(cs) cells; +1 nM R1881, 1 μM
  AMIGO2 expression, antagonist transcription: 0.19
  BDNF expression, antagonist transcription: 0.28
  CAM2KN1 expression, antagonist transcription: 0.06
  FASN expression, antagonist transcription: 0.42
  FKBP5 expression, antagonist transcription: 5.64
  HPGD expression, antagonist transcription: 16.30
  NCAPD3 expression, antagonist transcription: 4.35
  NKX3.1 expression, antagonist transcription: 3.77
  NOV expression, antagonist transcription: 0.14
  PLD1 expression, antagonist transcription: 0.02
  PSA expression, antagonist transcription: 8.82
  SLUG expression, antagonist transcription: 10.20
  STEAP4 expression, antagonist transcription: 109.37
  TMPRSS2 expression, antagonist transcription: 7.72
LNCaP/AR(cs) cells; +1 nM R1881, 3 μM
  AMIGO2 expression, antagonist transcription: 0.48
  BDNF expression, antagonist transcription: 0.63
  CAM2KN1 expression, antagonist transcription: 0.27
  FASN expression, antagonist transcription: 0.71
  FKBP5 expression, antagonist transcription: 3.32
  HPGD expression, antagonist transcription: 13.19
  NCAPD3 expression, antagonist transcription: 3.14
  NKX3.1 expression, antagonist transcription: 6.72
  NOV expression, antagonist transcription: 0.61
  ORM1 expression, antagonist transcription: 257.85
  PLD1 expression, antagonist transcription: 0.13
  PSA expression, antagonist transcription: 11.75
  SLUG expression, antagonist transcription: 10.56
  STEAP4 expression, antagonist transcription: 74.44
  TMPRSS2 expression, antagonist transcription: 10.51
LNCaP/AR(cs) cells; +1 nM R1881, 10 μM
  AMIGO2 expression, antagonist transcription: 0.78
  BDNF expression, antagonist transcription: 0.99
  CAM2KN1 expression, antagonist transcription: 0.50
  FASN expression, antagonist transcription: 0.46
  FKBP5 expression, antagonist transcription: 1.41
  NKX3.1 expression, antagonist transcription: 4.70
  NOV expression, antagonist transcription: 1.00
  ORM1 expression, antagonist transcription: 43.91
  PLD1 expression, antagonist transcription: 0.42
  PSA expression, antagonist transcription: 6.59
  SLUG expression, antagonist transcription: 5.26
  STEAP4 expression, antagonist transcription: 13.61
  TMPRSS2 expression, antagonist transcription: 3.58
LNCaP/AR(cs) cells; +1 nM R1881, 30 μM
  AMIGO2 expression, antagonist transcription: 0.92
  BDNF expression, antagonist transcription: 1.12
  CAM2KN1 expression, antagonist transcription: 0.56
  FASN expression, antagonist transcription: 0.59
  FKBP5 expression, antagonist transcription: 1.50
  HPGD expression, antagonist transcription: 4.25
  NKX3.1 expression, antagonist transcription: 5.03
  NOV expression, antagonist transcription: 0.92
  ORM1 expression, antagonist transcription: 22.70
  PLD1 expression, antagonist transcription: 0.54
  PSA expression, antagonist transcription: 5.65
  SLUG expression, antagonist transcription: 5.22
  STEAP4 expression, antagonist transcription: 7.79
  TMPRSS2 expression, antagonist transcription: 4.62
LNCaP/AR(cs) cells; [3]
  FASN gene expression: 1.19
  FKBP5 gene expression: 1.71
  HPGD gene expression: 2.01
  NKX3.1 gene expression: 2.51
  ORM1 gene expression: 3.58
  PLD1 gene expression: 0.65
  PSA gene expression: 2.69
  SLUG gene expression: 2.06
  TMPRSS2 gene expression: 2.36
LNCaP/AR(cs) cells; −R1881, 0.3 μM
  AMIGO2 expression, agonist transcription: 0.68
  CAM2KN1 expression, agonist transcription: 0.80
  FASN expression, agonist transcription: 0.47
  FKBP5 expression, agonist transcription: 0.91
  HPGD expression, agonist transcription: 0.74
  NCAPD3 expression, agonist transcription: 0.66
  NKX3.1 expression, agonist transcription: 0.71
  NOV expression, agonist transcription: 1.12
  ORM1 expression, agonist transcription: 0.92
  PLD1 expression, agonist transcription: 0.77
  PSA expression, agonist transcription: 0.42
  SLUG expression, agonist transcription: 0.53
  STEAP4 expression, agonist transcription: 0.75
  TMPRSS2 expression, agonist transcription: 0.75
LNCaP/AR(cs) cells; −R1881, 1 μM
  AMIGO2 expression, agonist transcription: 0.61
  BDNF expression, agonist transcription: 0.92
  CAM2KN1 expression, agonist transcription: 0.70
  FASN expression, agonist transcription: 0.32
  FKBP5 expression, agonist transcription: 0.62
  HPGD expression, agonist transcription: 0.57
  NCAPD3 expression, agonist transcription: 0.57
  NKX3.1 expression, agonist transcription: 0.52
  NOV expression, agonist transcription: 0.91
  ORM1 expression, agonist transcription: 0.90
  PLD1 expression, agonist transcription: 0.62
  PSA expression, agonist transcription: 0.32
  SLUG expression, agonist transcription: 0.55
  STEAP4 expression, agonist transcription: 0.73
  TMPRSS2 expression, agonist transcription: 0.53
LNCaP/AR(cs) cells; −R1881, 3 μM
  AMIGO2 expression, agonist transcription: 0.62
  BDNF expression, agonist transcription: 0.88
  CAM2KN1 expression, agonist transcription: 0.71
  FASN expression, agonist transcription: 0.29
  FKBP5 expression, agonist transcription: 0.75
  HPGD expression, agonist transcription: 0.61
  NCAPD3 expression, agonist transcription: 0.47
  NKX3.1 expression, agonist transcription: 0.51
  NOV expression, agonist transcription: 0.80
  ORM1 expression, agonist transcription: 1.06
  PLD1 expression, agonist transcription: 0.63
  PSA expression, agonist transcription: 0.38
  SLUG expression, agonist transcription: 0.31
  STEAP4 expression, agonist transcription: 0.52
  TMPRSS2 expression, agonist transcription: 0.63
LNCaP/AR(cs) cells; −R1881, 10 μM
  AMIGO2 expression, agonist transcription: 0.66
  BDNF expression, agonist transcription: 0.95
  CAM2KN1 expression, agonist transcription: 0.64
  FASN expression, agonist transcription: 0.31
  FKBP5 expression, agonist transcription: 0.61
  HPGD expression, agonist transcription: 0.63
  NCAPD3 expression, agonist transcription: 0.56
  NKX3.1 expression, agonist transcription: 0.86
  ORM1 expression, agonist transcription: 0.71
  PLD1 expression, agonist transcription: 0.56
  PSA expression, agonist transcription: 0.74
  SLUG expression, agonist transcription: 0.51
  STEAP4 expression, agonist transcription: 1.16
  TMPRSS2 expression, agonist transcription: 0.89
LNCaP/AR(cs) cells; −R1881, 30 μM
  CAM2KN1 expression, agonist transcription: 0.64
  FKBP5 expression, agonist transcription: 0.85
  NCAPD3 expression, agonist transcription: 0.79
  NKX3.1 expression, agonist transcription: 1.63
  ORM1 expression, agonist transcription: 2.02
  PLD1 expression, agonist transcription: 0.56
  PSA expression, agonist transcription: 1.60
  SLUG expression, agonist transcription: 0.91
  TMPRSS2 expression, agonist transcription: 1.45
[1]; Class 1, [Antagonists] = 50 μM
  Agonist Transcriptional Reporter Assay (% Max Activity): + (‘+’ = <5)
[1]; Class 1, [Antagonists] = 50 μM in presence of R1881
  Antagonist Transcriptional Reporter Assay (% Max Activity): + (‘+’ = <5)
[1]; decrease in luciferase activity relative to no treatment controls
  Antagonist activity in probasin-luciferase reporter, Class 1 resistant cells: effective antagonists
[2]
  Antagonism of androgen dependent growth of Class 2 resistant lines: only partially antagonized
LNCaP ARN-509r1 cells
  AMIGO2 gene expression: 0.99
  CAM2KN1 gene expression: 0.59
  FASN gene expression: 1.53
  FKBP5 gene expression: 9.45
  HPGD gene expression: 10.20
  NCAPD3 gene expression: 3.12
  NOV gene expression: 1.39
  ORM1 gene expression: 205.07
  PLD1 gene expression: 0.24
  PSA gene expression: 57.68
  SLUG gene expression: 42.52
  STEAP4 gene expression: 32.22
  TMPRSS2 gene expression: 23.75
